From patent US20040162221A1, “Pyrazole derivatives and herbicides containing the same” (IDEMITSU KOSAN CO., LTD., priority 1998, published 2004)

How the values were obtained:
redroot pigweed [1] = assay: Upland pre-emergence treatment test, redroot pigweed; assay type: in vivo, redroot pigweed (Amaranthus retroflexus); as to Herbicidal Efficacy CC = Rough Pigweed: ranges in brackets are in %
Source text: (§1) 97 Parts by weight of talc (trade name: Zeaklite, supplied by Zeaklite Industry) as a carrier, 1.5 parts by weight of alkylarylsulfonic acid salt (trade name: Neoplex, supplied by Kao-Atlas K.K.) as a surfactant and 1.5 parts by weight of a nonionic and anionic surfactant (trade names Sorpol 800A, supplied by Toho Chemical Co., Ltd.) were uniformly pulverized and mixed to prepare a carrier for a wettable powder.
(§2) 90 Parts by weight of the above carrier for a wettable powder and 10 parts by weight of one of the compounds of the present invention were uniformly pulverized and mixed to obtain herbicides. Further, in Comparative Herbicide Examples, comparative herbicides were also prepared from the following compounds (A) and (B) in the same manner.
(§3) Herbicidal efficacy and phytotoxicity to crops were determined on the basis of the ratio of remaining plant weight to plant weight in non-treated plot=(remaining plant weight in treated plot/plant weight in non-treated-plot)×100. The ratings were applied to the following biological tests.
(§4) Seeds of weeds such as velvetleaf, common lambsquaters, redroot pigweed, common ragweed, green foxtail and large crabgrass and seeds of corn were sown in 1/5,000-are Wagner pots filled with upland soil, and covered with upland soil. Then, a predetermined amount of the herbicide prepared in the above (1) was suspended in water, and the suspension was uniformly sprayed onto the soil surface at a rate of 2,000 liters/hectare. Then, the seeds were grown in a greenhouse, and on the 20th day after the treatment, the herbicide was evaluated for herbicidal efficacy and phytotoxicity to corn on the basis of the ratings shown in (2).

common lambsquaters = assay: Upland pre-emergence treatment test, common lambsquaters; assay type: in vivo, common lambsquaters (Chenopodium album); conditions: pre-emergence soil surface spray, 80 g/ha, 20th day after treatment, greenhouse; also: ranges in brackets are in %
Source text: as §1, §2, §3, §4

corn [2] = assay: Upland pre-emergence treatment test, phytotoxicity to corn; assay type: in vivo; conditions: pre-emergence soil surface spray, 80 g/ha, 20th day after treatment, greenhouse; also: ranges in brackets are in %
Source text: as §1, §2, §3, §4

large crabgrass [3] = assay: Upland post-emergence treatment test, large crabgrass; assay type: in vivo; conditions: post-emergence spray at 3-4 leaf stage, 80 g/ha, 30th day after treatment, greenhouse; also: ranges in brackets are in %
Procedure, shortened: (§5)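 Plants in upland soil at the 3-4 leaf stage, greenhouse-grown, were sprayed on foliage at 2,000 L/ha with a water suspension of 10% wettable-powder formulation. Efficacy assessed 30 days after treatment as remaining plant weight relative to the untreated plot (×100).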

large crabgrass [4] = assay: Upland pre-emergence treatment test, large crabgrass; assay type: in vivo; conditions: pre-emergence soil surface spray, 80 g/ha, 20th day after treatment, greenhouse; also: ranges in brackets are in %
Source text: as §1, §2, §3, §4

common ragweed [5] = assay: Upland post-emergence treatment test, common ragweed; assay type: in vivo, common ragweed (Ambrosia artemisilfolia); conditions: post-emergence spray at 3-4 leaf stage, 80 g/ha, 30th day after treatment, greenhouse; also: ranges in brackets are in %
Procedure, shortened: as §5

velvetleaf [6] = assay: Upland pre-emergence treatment test, velvetleaf; assay type: in vivo, velvetleaf (Abutilon theophrasti); conditions: pre-emergence soil surface spray, 80 g/ha, 20th day after treatment, greenhouse; also: ranges in brackets are in %
Source text: as §1, §2, §3, §4

green foxtail [7] = assay: Upland post-emergence treatment test, green foxtail; assay type: in vivo, green foxtail (Setaria viridis); conditions: post-emergence spray at 3-4 leaf stage, 80 g/ha, 30th day after treatment, greenhouse; also: ranges in brackets are in %
Procedure, shortened: as §5

green foxtail [8] = assay: Upland pre-emergence treatment test, green foxtail; assay type: in vivo, green foxtail (Setaria viridis); conditions: pre-emergence soil surface spray, 80 g/ha, 20th day after treatment, greenhouse; also: ranges in brackets are in %
Source text: as §1, §2, §3, §4

common ragweed [9] = assay: Upland pre-emergence treatment test, common ragweed; assay type: in vivo, common ragweed (Ambrosia artemisilfolia); conditions: pre-emergence soil surface spray, 80 g/ha, 20th day after treatment, greenhouse; also: ranges in brackets are in %
Source text: as §1, §2, §3, §4

redroot pigweed [10] = assay: Upland post-emergence treatment test, redroot pigweed; assay type: in vivo, redroot pigweed (Amaranthus retroflexus); as to Herbicidal Efficacy CC = Redroot Pigweed: ranges in brackets are in %
Procedure, shortened: as §5

corn [11] = assay: Upland post-emergence treatment test, phytotoxicity to corn; assay type: in vivo; conditions: post-emergence spray at 3-4 leaf stage, 80 g/ha, 30th day after treatment, greenhouse; also: ranges in brackets are in %
Procedure, shortened: as §5

velvetleaf [12] = assay: Upland post-emergence treatment test, velvetleaf; assay type: in vivo, velvetleaf (Abutilon theophrasti); conditions: post-emergence spray at 3-4 leaf stage, 80 g/ha, 30th day after treatment, greenhouse; also: ranges in brackets are in %
Procedure, shortened: as §5

Compound: CCCS(=O)(=O)Oc1c(C(=O)c2cc(C)c3c(c2C)C(C)(C)CS3(=O)=O)cnn1CC [Compound (A), reference compound]
- Herbicidal Efficacy CC = Rough Pigweed (redroot pigweed [1]; pre-emergence soil surface spray, 80 g/ha, 20th day after treatment, greenhouse): 0 (81-100)
- herbicidal efficacy against redroot pigweed (in words) (redroot pigweed [1]; pre-emergence, text summary of Table 7): clearly poor
- Herbicidal Efficacy BB = Common lambsquaters (common lambsquaters): 2 (41-60)
- Phytotoxicity Corn (corn [2]): − (100)
- Herbicidal Efficacy FF = Large crabgrass (large crabgrass [3]): 1 (61-80)
- Herbicidal Efficacy FF = Large crabgrass (large crabgrass [4]): 1 (61-80)
- Herbicidal Efficacy DD = Common ragweed (common ragweed [5]): 2 (41-60)
- Herbicidal Efficacy AA = Velvetleaf (velvetleaf [6]): 2 (41-60)
- Herbicidal Efficacy EE = Green foxtail (green foxtail [7]): 1 (61-80)
- Herbicidal Efficacy EE = Green foxtail (green foxtail [8]): 1 (61-80)
- Herbicidal Efficacy DD = Common ragweed (common ragweed [9]): 1 (61-80)
- Herbicidal Efficacy CC = Redroot Pigweed (redroot pigweed [10]; post-emergence spray at 3-4 leaf stage, 80 g/ha, 30th day after treatment, greenhouse): 0 (81-100)
- herbicidal efficacy against redroot pigweed (in words) (redroot pigweed [10]; post-emergence, Tables 8 and 9): clearly poor
- Phytotoxicity Corn (corn [11]): − (100)
- Herbicidal Efficacy AA = Velvetleaf (velvetleaf [12]): 2 (41-60)
